Test results published in ChEMBL document CHEMBL1201862, “PubChem BioAssay data set” (2004).
The source made the active and inactive calls.

Key:
[1] = target: T1, Heat shock factor protein 1 (Mus musculus, UniProt P38532); assay: inhibition of MG132-induced HSE-luciferase signal, confirmation, cell-based, NIH3T3, luminescence, dose retest (AID 2382); type: functional;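 further: NIH3T3 fibroblasts with HSF1-driven luciferase reporter stressed by proteasome inhibitor MG132; luminescence from HSF1-driven luciferase expression after 8 hours of MG132 stress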
T1 sequence (P38532 whole entry): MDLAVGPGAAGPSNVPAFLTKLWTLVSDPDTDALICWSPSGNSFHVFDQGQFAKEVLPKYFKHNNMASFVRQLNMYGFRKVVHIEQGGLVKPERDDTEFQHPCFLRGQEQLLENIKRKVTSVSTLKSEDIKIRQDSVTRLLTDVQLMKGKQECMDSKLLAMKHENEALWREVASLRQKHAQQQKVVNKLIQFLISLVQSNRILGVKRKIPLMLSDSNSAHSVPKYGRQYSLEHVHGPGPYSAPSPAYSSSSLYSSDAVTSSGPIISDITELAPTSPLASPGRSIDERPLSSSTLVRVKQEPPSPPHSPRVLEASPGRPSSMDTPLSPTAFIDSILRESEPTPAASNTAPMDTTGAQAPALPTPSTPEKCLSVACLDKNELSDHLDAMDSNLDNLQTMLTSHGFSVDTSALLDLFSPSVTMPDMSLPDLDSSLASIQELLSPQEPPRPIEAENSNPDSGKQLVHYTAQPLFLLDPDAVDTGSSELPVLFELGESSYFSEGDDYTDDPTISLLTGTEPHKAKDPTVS

[2] = target: T2, Corticotropin-releasing factor receptor 2/Corticotropin-releasing factor-binding protein (Homo sapiens, UniProt P24387+Q13324); assay: Dose Response confirmation of uHTS hits for small molecule antagonists of the CRF-binding protein and CRF-R2 receptor complex.; type: functional; settings: read-out: IC50_Mean
T2 sequence (Q13324 whole entry): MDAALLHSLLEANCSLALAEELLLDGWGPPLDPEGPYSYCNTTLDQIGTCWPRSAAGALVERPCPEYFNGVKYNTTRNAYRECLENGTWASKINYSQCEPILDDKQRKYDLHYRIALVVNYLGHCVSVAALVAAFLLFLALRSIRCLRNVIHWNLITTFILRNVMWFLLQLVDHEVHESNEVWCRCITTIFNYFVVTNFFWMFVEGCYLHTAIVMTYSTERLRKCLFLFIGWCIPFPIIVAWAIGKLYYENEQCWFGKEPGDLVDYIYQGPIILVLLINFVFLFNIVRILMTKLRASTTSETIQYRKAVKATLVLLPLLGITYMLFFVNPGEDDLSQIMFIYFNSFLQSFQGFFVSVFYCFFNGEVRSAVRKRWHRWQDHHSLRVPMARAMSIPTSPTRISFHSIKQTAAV
T2 sequence (P24387 whole entry): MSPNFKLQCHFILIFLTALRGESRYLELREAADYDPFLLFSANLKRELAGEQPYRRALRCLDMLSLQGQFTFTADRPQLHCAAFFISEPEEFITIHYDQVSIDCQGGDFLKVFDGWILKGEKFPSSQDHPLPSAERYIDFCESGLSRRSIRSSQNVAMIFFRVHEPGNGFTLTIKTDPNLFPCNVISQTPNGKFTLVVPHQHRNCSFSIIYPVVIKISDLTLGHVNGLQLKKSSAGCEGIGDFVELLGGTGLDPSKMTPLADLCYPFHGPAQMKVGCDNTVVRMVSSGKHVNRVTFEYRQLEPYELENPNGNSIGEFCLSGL

[3] = target: T2, Corticotropin-releasing factor receptor 2/Corticotropin-releasing factor-binding protein; assay: activators of CRF receptor 2 with binding protein – uHTS hits, confirmation (AID 602473); type: functional; settings: read-out: EC50_Mean
[4] = CRF-BP/CRF-R2 complex antagonists, dose response, cell-based, uHTS hits, 384-well (AID 651639); type: functional, Homo sapiens; settings: read-out: IC50_Mean
[5] = target: Photoreceptor-specific nuclear receptor (Homo sapiens, UniProt Q9Y5X4); type: functional, cell-based;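 further: CHO-S cells with Gal4-NCOR and VP16-NR2E3 two-hybrid luciferase reporter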
Chain of Photoreceptor-specific nuclear receptor (Q9Y5X4 whole entry, the tested form may be a part): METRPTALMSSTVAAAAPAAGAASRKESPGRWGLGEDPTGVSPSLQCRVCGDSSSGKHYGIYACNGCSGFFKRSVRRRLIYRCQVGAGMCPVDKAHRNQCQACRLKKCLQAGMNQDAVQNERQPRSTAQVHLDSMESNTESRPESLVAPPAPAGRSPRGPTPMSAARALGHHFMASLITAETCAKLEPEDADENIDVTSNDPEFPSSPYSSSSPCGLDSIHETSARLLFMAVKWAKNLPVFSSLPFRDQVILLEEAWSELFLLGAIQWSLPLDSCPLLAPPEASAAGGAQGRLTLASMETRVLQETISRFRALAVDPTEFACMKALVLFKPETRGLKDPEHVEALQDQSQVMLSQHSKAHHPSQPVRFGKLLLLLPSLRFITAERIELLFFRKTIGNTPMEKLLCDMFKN

[6] = target: Hepatocyte nuclear factor 4-alpha (Homo sapiens, UniProt P41235); type: functional, cell-based;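 further: biochemical luminescence-based dose-response counterscreen measuring inhibition of HNF4 dimerization, run alongside a screen for blockers of ABHD5–perilipin-5 interaction; split luciferase complementation of HNF4 fusion proteins in cell lysate measuring dimerization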
Chain of Hepatocyte nuclear factor 4-alpha (P41235 whole entry, the tested form may be a part): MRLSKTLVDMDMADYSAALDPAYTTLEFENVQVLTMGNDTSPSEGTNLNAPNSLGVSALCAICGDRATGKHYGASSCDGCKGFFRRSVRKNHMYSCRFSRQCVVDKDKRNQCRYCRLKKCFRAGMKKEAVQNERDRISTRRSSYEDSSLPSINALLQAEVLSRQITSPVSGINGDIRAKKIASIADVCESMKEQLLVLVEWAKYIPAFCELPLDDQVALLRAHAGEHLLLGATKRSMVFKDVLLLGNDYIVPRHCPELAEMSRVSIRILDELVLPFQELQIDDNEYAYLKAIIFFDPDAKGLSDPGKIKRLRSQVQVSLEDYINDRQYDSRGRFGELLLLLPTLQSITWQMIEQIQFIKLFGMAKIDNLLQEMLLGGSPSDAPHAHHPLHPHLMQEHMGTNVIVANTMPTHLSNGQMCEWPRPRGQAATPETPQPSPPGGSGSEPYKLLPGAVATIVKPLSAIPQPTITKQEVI

COc1cccc2cc(-c3nnc(-c4ccccc4)o3)c(=O)oc12
EC50 [1]: 70.4 µM (active)
IC50 [2]: < 0.368 µM (active)
EC50 [3]: > 53 µM (inactive)
IC50 [4]: 0.675 µM (active)

CC(C(=O)N1CCN(c2ccc(Cl)cc2)CC1)c1ncc(C(F)(F)F)cc1Cl (stereo unspecified)
IC50 [5]: 3.65 µM (active)

N#Cc1ccc(C(C(=O)NC2CCCCC2)n2c(=O)c(-c3ccco3)nc3ccccc32)cc1 (stereo unspecified)
IC50 [6]: 2.39 µM (active)
